According to the NIST ThermoML archive (doi:10.1016/j.tca.2018.07.026):

Columns and labels:
[1] = Crystal, Transpiration method
[2] = molar heat capacity at constant pressure; details: 101.33 kPa, Crystal, DSC

N#Cc1ccc2ccccc2c1 [2-naphthalenecarbonitrile]
Details	molar heat capacity at constant pressure, [2] [J/K/mol]	vapor or sublimation pressure, [1] [kPa]
313.8 K	182.1	–
314.4 K	182.8	–
314.9 K	183.3	–
315.3 K	183.7	–
315.5 K	–	0.00091
315.8 K	184.2	–
316.3 K	184.6	–
316.8 K	185	–
317.3 K	185.3	–
317.8 K	185.4	–
318.2 K	185.5	–
318.4 K	–	0.00122
318.7 K	185.9	–
319.2 K	186.1	–
319.6 K	186.3	–
320.1 K	186.6	–
320.5 K	186.8	0.00152
320.9 K	187.1	–
321.4 K	187.4	–
321.8 K	187.5	–
322.2 K	187.8	–
322.4 K	–	0.00195
322.7 K	188.1	–
323.1 K	188.4	–
323.5 K	188.6	–
323.9 K	188.9	–
324.4 K	189.1	–
324.5 K	–	0.00237
324.8 K	189.5	–
325.2 K	189.8	–
325.6 K	190.2	–
326 K	190.7	–
326.4 K	191.2	0.00284
326.8 K	191.5	–
327.1 K	191.8	–
328.2 K	–	0.0035
331.3 K	–	0.00463
333.2 K	–	0.00579
334.2 K	–	0.00641

O=C(O)c1ccccc1 [benzoic acid]
[2]
Details	molar heat capacity at constant pressure [J/K/mol]
318.8 K	122.9
319.2 K	127.1
319.7 K	130.8
320.1 K	134.3
320.6 K	137.7
321 K	140.7
321.4 K	143.4
321.9 K	146.1
322.3 K	148.4
322.7 K	150.5
323.1 K	152.4
323.5 K	154.1
324 K	155.6
324.4 K	157
324.8 K	158.3
325.2 K	159.5
325.6 K	160.4
326 K	161.3
326.4 K	162
326.8 K	162.7
327.2 K	163.4
327.6 K	163.9
328 K	164.3
328.3 K	164.8
328.7 K	165.1
329.1 K	165.3
329.5 K	165.6
329.9 K	165.7
330.3 K	165.9
330.6 K	166
331 K	166.3
331.4 K	166.3
331.8 K	166.4
332.1 K	166.4
332.5 K	166.4
332.9 K	166.5
333.3 K	166.5
333.6 K	166.5
334 K	166.6
334.4 K	166.6
334.8 K	166.5
335.1 K	166.6
335.5 K	166.7
335.9 K	166.7
336.2 K	166.7
336.6 K	166.7
337 K	166.7
337.3 K	166.7
337.7 K	166.9
338.1 K	166.9
338.5 K	167
338.8 K	167.1
339.2 K	167.2
339.6 K	167.3
339.9 K	167.4
340.3 K	167.5
340.7 K	167.6
341 K	167.7
341.4 K	167.8
341.8 K	167.9
342 K	168

c1ccc2ccccc2c1 [naphthalene]
[1]
Details	vapor or sublimation pressure [kPa]
288.2 K	0.00418
290.7 K	0.00548
293.2 K	0.00698
298.2 K	0.01114
303.2 K	0.01811
308 K	0.02903
313.1 K	0.04408
318.2 K	0.0671
323.1 K	0.102
328.1 K	0.1538
330.5 K	0.1867
333 K	0.2235
